Results as given in ChEMBL document CHEMBL3885881, “DrugMatrix”.

Species on record: Rattus norvegicus
Experiment: DrugMatrix - Regimen: Daily Repeat
Assay type: toxicity, organism-based, Sprague-Dawley
Design: regimen Daily Repeat, gender Male, age 6-8 weeks
Conditions: in vivo, po, route oral GAVAGE, vehicle 100 % WATER; for ABSOLUTE BASOPHIL / ABSOLUTE EOSINOPHIL / ABSOLUTE LYMPHOCYTE / ABSOLUTE MONOCYTE / ABSOLUTE SEGMENTED NEUTROPHIL / BASOPHIL / EOSINOPHIL / ERYTHROCYTE COUNT / HEMATOCRIT / HEMOGLOBIN / LEUKOCYTE COUNT / LYMPHOCYTE / MEAN CORPUSCULAR HEMOGLOBIN / MEAN CORPUSCULAR HEMOGLOBIN CONCENTRATION / MEAN CORPUSCULAR VOLUME / MONOCYTE / NEUTROPHIL / NUCLEATED RED BLOOD CELLS / PLATELET COUNT: tissue Blood; for ALANINE AMINOTRANSFERASE / ALBUMIN / ALKALINE PHOSPHATASE / ASPARTATE AMINOTRANSFERASE / BLOOD UREA NITROGEN / CARBON DIOXIDE / CHLORIDE / CHOLESTEROL / CREATINE PHOSPHOKINASE / CREATININE / GLUCOSE / LACTATE DEHYDROGENASE / LIPASE / PHOSPHORUS / POTASSIUM / SODIUM / TOTAL BILIRUBIN / TOTAL PROTEIN / URIC ACID: tissue Plasma
[1] = 160 mg/kg, 120 h, dose level Low, time 5 day
[2] = 1000 mg/kg, 72 h, dose level High, time 3 day
[3] = 1000 mg/kg, 120 h, dose level High, time 5 day

N[C@@H](Cc1ccc(O)c(O)c1)C(=O)O [LEVODOPA]
ABSOLUTE BASOPHIL [1]: 0 CELLS/uL | ABSOLUTE EOSINOPHIL [1]: 0 CELLS/uL | ABSOLUTE LYMPHOCYTE [1]: 7319.33 CELLS/uL | ABSOLUTE MONOCYTE [1]: 56 CELLS/uL | ABSOLUTE SEGMENTED NEUTROPHIL [1]: 1058 CELLS/uL | BASOPHIL [1]: 0% | EOSINOPHIL [1]: 0% | ERYTHROCYTE COUNT [1]: 5.23 x10E6/uL | HEMATOCRIT [1]: 34.27% | HEMOGLOBIN [1]: 13 G/DL | LEUKOCYTE COUNT [1]: 8.43 x10E3/uL | LYMPHOCYTE [1]: 87.67% | MEAN CORPUSCULAR HEMOGLOBIN [1]: 25.13 pg | MEAN CORPUSCULAR HEMOGLOBIN CONCENTRATION [1]: 38 G/DL | MEAN CORPUSCULAR VOLUME [1]: 66.13 fL | MONOCYTE [1]: 0.67% | NEUTROPHIL [1]: 11.67% | NUCLEATED RED BLOOD CELLS [1]: 0 /100WBC | PLATELET COUNT [1]: 1259.67 x10E3/uL | ALANINE AMINOTRANSFERASE [1]: 48 u/L | ALBUMIN [1]: 4.1 G/DL | ALKALINE PHOSPHATASE [1]: 360.33 u/L | ASPARTATE AMINOTRANSFERASE [1]: 84.33 u/L | BLOOD UREA NITROGEN [1]: 16 mg/dL | CARBON DIOXIDE [1]: 30.33 mmol/L | CHLORIDE [1]: 103 MEQ/L | CHOLESTEROL [1]: 58 mg/dL | CREATINE PHOSPHOKINASE [1]: 286.33 u/L | CREATININE [1]: 0.17 mg/dL | GLUCOSE [1]: 137 mg/dL | LACTATE DEHYDROGENASE [1]: 128 u/L | LIPASE [1]: 10 u/L | PHOSPHORUS [1]: 10.63 mg/dL | POTASSIUM [1]: 6.08 MEQ/L | SODIUM [1]: 145.37 MEQ/L | TOTAL BILIRUBIN [1]: 0.17 mg/dL | TOTAL PROTEIN [1]: 5.97 G/DL | URIC ACID [1]: 1.03 mg/dL | ABSOLUTE BASOPHIL [2]: 0 CELLS/uL | ABSOLUTE EOSINOPHIL [2]: 0 CELLS/uL | ABSOLUTE LYMPHOCYTE [2]: 14031 CELLS/uL | ABSOLUTE MONOCYTE [2]: 188.67 CELLS/uL | ABSOLUTE SEGMENTED NEUTROPHIL [2]: 780.33 CELLS/uL | BASOPHIL [2]: 0% | EOSINOPHIL [2]: 0% | ERYTHROCYTE COUNT [2]: 5.75 x10E6/uL | HEMATOCRIT [2]: 36.23% | HEMOGLOBIN [2]: 13.9 G/DL | LEUKOCYTE COUNT [2]: 15 x10E3/uL | LYMPHOCYTE [2]: 93.33% | MEAN CORPUSCULAR HEMOGLOBIN [2]: 24.2 pg | MEAN CORPUSCULAR HEMOGLOBIN CONCENTRATION [2]: 38.37 G/DL | MEAN CORPUSCULAR VOLUME [2]: 63 fL | MONOCYTE [2]: 1% | NEUTROPHIL [2]: 5.67% | NUCLEATED RED BLOOD CELLS [2]: 0.33 /100WBC | PLATELET COUNT [2]: 1320 x10E3/uL | ALANINE AMINOTRANSFERASE [2]: 57.33 u/L | ALBUMIN [2]: 4.13 G/DL | ALKALINE PHOSPHATASE [2]: 415 u/L | ASPARTATE AMINOTRANSFERASE [2]: 88 u/L | BLOOD UREA NITROGEN [2]: 14 mg/dL | CARBON DIOXIDE [2]: 32 mmol/L | CHLORIDE [2]: 101.67 MEQ/L | CHOLESTEROL [2]: 54.33 mg/dL | CREATINE PHOSPHOKINASE [2]: 336.67 u/L | CREATININE [2]: 0.2 mg/dL | GLUCOSE [2]: 120 mg/dL | LACTATE DEHYDROGENASE [2]: 167.33 u/L | LIPASE [2]: 10.33 u/L | PHOSPHORUS [2]: 11 mg/dL | POTASSIUM [2]: 6.09 MEQ/L | SODIUM [2]: 145.53 MEQ/L | TOTAL BILIRUBIN [2]: 0.17 mg/dL | TOTAL PROTEIN [2]: 6.07 G/DL | URIC ACID [2]: 0.8 mg/dL | ABSOLUTE BASOPHIL [3]: 0 CELLS/uL | ABSOLUTE EOSINOPHIL [3]: 0 CELLS/uL | ABSOLUTE LYMPHOCYTE [3]: 11289.33 CELLS/uL | ABSOLUTE MONOCYTE [3]: 104.67 CELLS/uL | ABSOLUTE SEGMENTED NEUTROPHIL [3]: 539.33 CELLS/uL | BASOPHIL [3]: 0% | EOSINOPHIL [3]: 0% | ERYTHROCYTE COUNT [3]: 6.06 x10E6/uL | HEMATOCRIT [3]: 37.27% | HEMOGLOBIN [3]: 14.47 G/DL | LEUKOCYTE COUNT [3]: 11.93 x10E3/uL | LYMPHOCYTE [3]: 95.33% | MEAN CORPUSCULAR HEMOGLOBIN [3]: 23.87 pg | MEAN CORPUSCULAR HEMOGLOBIN CONCENTRATION [3]: 38.83 G/DL | MEAN CORPUSCULAR VOLUME [3]: 61.43 fL | MONOCYTE [3]: 0.67% | NEUTROPHIL [3]: 4% | NUCLEATED RED BLOOD CELLS [3]: 0 /100WBC | PLATELET COUNT [3]: 1582 x10E3/uL | ALANINE AMINOTRANSFERASE [3]: 46.33 u/L | ALBUMIN [3]: 4.17 G/DL | ALKALINE PHOSPHATASE [3]: 308.33 u/L | ASPARTATE AMINOTRANSFERASE [3]: 68 u/L | BLOOD UREA NITROGEN [3]: 20.33 mg/dL | CARBON DIOXIDE [3]: 33.67 mmol/L | CHLORIDE [3]: 101.67 MEQ/L | CHOLESTEROL [3]: 59.33 mg/dL | CREATINE PHOSPHOKINASE [3]: 271.67 u/L | CREATININE [3]: 0.21 mg/dL | GLUCOSE [3]: 124 mg/dL | LACTATE DEHYDROGENASE [3]: 116.67 u/L | LIPASE [3]: 10 u/L | PHOSPHORUS [3]: 10.37 mg/dL | POTASSIUM [3]: 6.24 MEQ/L | SODIUM [3]: 147.43 MEQ/L | TOTAL BILIRUBIN [3]: 0.17 mg/dL | TOTAL PROTEIN [3]: 6.13 G/DL | URIC ACID [3]: 1.2 mg/dL
